What was measured:
[1] = target: Coagulation factor XI (Homo sapiens) (UniProt P03951); assay: Inhibition of factor 11a at 222 uM after 10 min
[2] = target: Coagulation factor IX (Homo sapiens) (UniProt P00740); assay: Inhibition of factor 9a at 222 uM after 10 min
Chain of Coagulation factor IX (Homo sapiens) (P00740 47-191 limits assumed): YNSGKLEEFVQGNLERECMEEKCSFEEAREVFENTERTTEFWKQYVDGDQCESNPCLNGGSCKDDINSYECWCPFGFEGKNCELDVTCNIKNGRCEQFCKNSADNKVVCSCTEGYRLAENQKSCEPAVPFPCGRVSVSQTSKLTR
Chain of Coagulation factor IX (Homo sapiens) (P00740 227-461 limits assumed): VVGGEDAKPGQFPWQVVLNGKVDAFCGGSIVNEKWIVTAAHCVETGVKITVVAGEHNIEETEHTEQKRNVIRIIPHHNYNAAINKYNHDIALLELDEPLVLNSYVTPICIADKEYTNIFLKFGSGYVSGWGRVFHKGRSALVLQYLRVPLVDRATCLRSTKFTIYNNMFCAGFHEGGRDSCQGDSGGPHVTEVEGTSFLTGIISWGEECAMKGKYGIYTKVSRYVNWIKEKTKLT

Chain of Coagulation factor XI (Homo sapiens) (P03951 19-387 limits assumed): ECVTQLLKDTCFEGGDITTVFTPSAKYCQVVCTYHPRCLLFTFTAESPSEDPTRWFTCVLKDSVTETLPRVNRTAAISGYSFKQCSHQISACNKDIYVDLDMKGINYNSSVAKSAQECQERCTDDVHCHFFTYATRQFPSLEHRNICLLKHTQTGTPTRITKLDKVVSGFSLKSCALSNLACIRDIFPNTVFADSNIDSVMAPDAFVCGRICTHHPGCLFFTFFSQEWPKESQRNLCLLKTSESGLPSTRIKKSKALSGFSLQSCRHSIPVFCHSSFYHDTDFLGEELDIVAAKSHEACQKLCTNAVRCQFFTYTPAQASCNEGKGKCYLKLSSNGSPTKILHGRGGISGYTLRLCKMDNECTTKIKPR
Chain of Coagulation factor XI (Homo sapiens) (P03951 388-625 limits assumed): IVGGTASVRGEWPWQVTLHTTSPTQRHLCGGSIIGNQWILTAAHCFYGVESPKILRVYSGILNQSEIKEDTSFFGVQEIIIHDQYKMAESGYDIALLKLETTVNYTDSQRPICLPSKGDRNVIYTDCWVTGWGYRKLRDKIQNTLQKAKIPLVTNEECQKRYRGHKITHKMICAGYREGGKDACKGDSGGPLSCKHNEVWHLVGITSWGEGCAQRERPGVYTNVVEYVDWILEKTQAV

SMILES	inhibition [1]	inhibition [2]
COC1=C(Br)[C@H](O)[C@@]2(C=C1Br)CC(C(=O)NCCCCCNC(=N)N)=NO2	30%	< 5%
N=C(N)NCCCCNC(=O)C1=NOC2(C=C(Br)C(=O)C(Br)=C2)C1	17%	< 5%
N=C(N)NCCCCCNC(=O)C1=NOC2(C=C(Br)C(=O)C(Br)=C2)C1	30%	< 5%
N=C(N)NCCCCNC(=O)/C(Cc1ccc(O)c(Br)c1)=N/O	37%	< 5%
COC1=C(Br)[C@@H](O)[C@]2(C=C1Br)CC(C(=O)NCCc1cnc[nH]1)=NO2	59%	< 5%
COC1=C(Br)[C@H](O)[C@@]2(C=C1Br)CC(C(=O)NCCCCNC(=N)N)=NO2	12%	< 5%

From ChEMBL document CHEMBL1152345, “Clavatadines C-E, guanidine alkaloids from the Australian sponge Suberea clavata” (J Nat Prod, 2009)
